Counter-ions that a name gives are not always drawn.
Experiment: not given

For `CCCC(C)(C)CC(CN)C(=O)O.Cl` (stereo not drawn), which melting point is on record?
Its melting point is 229.5 to 231 °C.

For `CCC[C@@H](C)C[C@H](CN)C(=O)O` (as salt: hydrochloride), which melting point is on record?
The melting point was 226.3 to 228 °C.

Which melting point does the source give for `CCCC(C)(C)C[C@H](N)CC(=O)O` (as salt: hydrochloride) (hydrate or solvate) here?
The melting point was 194.2 to 195.2 °C.

Which melting point does the source give for `CCCC[C@@H](C)C[C@H](N)CC(=O)O` (as salt: hydrochloride) here?
Its melting point is 142.5 to 143.3 °C.

With `CCC[C@@H](C)C[C@H](N)CC(=O)O.Cl` as the molecule, how does the melting point read?
The melting point was 142.5 to 142.7 °C.

Experiment: Plasma concentration (Cmax) of gabapentin in the rat

For `NCC1(CC(=O)O)CCCCC1` [gabapentin, 1-(aminomethyl)-cyclohexylacetic acid], which Cmax is on record?
The Cmax was 520 to 10500 ng/mL.
